# Assay results taken from ChEMBL document CHEMBL1201862, “PubChem BioAssay data set” (2004).
#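 Compound exposure: 48 hours, 5 concentrations, 96-well plates. Here, GI50 denotes the concentration required for 50% inhibition of growth.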 Activity calls are given as the source filed them. Cut-off read from the data, not from the text of the source: active = GI50 up to about 1.1 µM and inactive = higher.
# Assays:
# Assay in all cases: NCI anticancer screen, dose series, 48 h
# 786-0 = system: 786-0
# OVCAR-4 = system: OVCAR-4
# SN12C = system: SN12C
# MDA-MB-231 = system: MDA-MB-231
# DU-145 = system: DU-145
# A498 = system: A498
# NCI/ADR-RES = system: NCI/ADR-RES
# A549 = system: A549
# SK-OV-3 = system: SK-OV-3
# K562 = system: K562
# SF-539 = system: SF-539
# SF-268 = system: SF-268
# SNB-19 = system: SNB-19
# HL-60 = system: HL-60
# U-251 = system: U-251
# T47D = system: T47D
# PC-3 = system: PC-3
# OVCAR-3 = system: OVCAR-3
# UACC-62 = system: UACC-62
# Malme-3M = system: Malme-3M
# EKVX = system: EKVX
# Hs-578T = system: Hs-578T
# MOLT-4 = system: MOLT-4
# HOP-92 = system: HOP-92
# HOP-62 = system: HOP-62
# BT-549 = system: BT-549
# SW-620 = system: SW-620
# NCI-H522 = system: NCI-H522
# ACHN = system: ACHN
# NCI-H460 = system: NCI-H460
# SR = system: SR
# OVCAR-8 = system: OVCAR-8
# M14 = system: M14
# OVCAR-5 = system: OVCAR-5
# NCI-H226 = system: NCI-H226
# SK-MEL-28 = system: SK-MEL-28
# LOX IMVI = system: LOX IMVI
# SK-MEL-5 = system: SK-MEL-5
# KM12 = system: KM12
# MDA-MB-435 = system: MDA-MB-435
# HT-29 = system: HT-29
# HCT-116 = system: HCT-116
# MDA-N = system: MDA-N
# RPMI-8226 = system: RPMI-8226
# CAKI-1 = system: CAKI-1
# SF-295 = system: SF-295
# SK-MEL-2 = system: SK-MEL-2
# IGROV-1 = system: IGROV-1
# UO-31 = system: UO-31
# UACC-257 = system: UACC-257
# COLO 205 = system: COLO 205
# MCF7 = system: MCF7
# NCI-H23 = system: NCI-H23
# HCT-15 = system: HCT-15
# TK-10 = system: TK-10
# CCRF-CEM = system: CCRF-CEM
# SNB-75 = system: SNB-75
# HCC 2998 = system: HCC 2998
compound,measurement,setting,value
O=C(CCN1CCOCC1)Nc1ccc(F)cc1F,GI50,786-0,> 100 µM (inactive)
same,GI50,OVCAR-4,> 100 µM (inactive)
same,GI50,SN12C,> 100 µM (inactive)
same,GI50,MDA-MB-231,> 100 µM (inactive)
same,GI50,DU-145,> 100 µM (inactive)
same,GI50,A498,> 100 µM (inactive)
same,GI50,NCI/ADR-RES,> 100 µM (inactive)
same,GI50,A549,> 100 µM (inactive)
same,GI50,SK-OV-3,> 100 µM (inactive)
same,GI50,K562,> 100 µM (inactive)
same,GI50,SF-539,> 100 µM (inactive)
same,GI50,SF-268,> 100 µM (inactive)
same,GI50,SNB-19,> 100 µM (inactive)
same,GI50,HL-60,> 100 µM (inactive)
same,GI50,U-251,> 100 µM (inactive)
same,GI50,T47D,> 100 µM (inactive)
same,GI50,PC-3,> 100 µM (inactive)
same,GI50,OVCAR-3,> 100 µM (inactive)
same,GI50,UACC-62,> 100 µM (inactive)
same,GI50,Malme-3M,> 100 µM (inactive)
same,GI50,EKVX,> 100 µM (inactive)
same,GI50,Hs-578T,> 100 µM (inactive)
same,GI50,MOLT-4,> 100 µM (inactive)
same,GI50,HOP-92,> 100 µM (inactive)
same,GI50,HOP-62,> 100 µM (inactive)
same,GI50,BT-549,> 100 µM (inactive)
same,GI50,SW-620,> 100 µM (inactive)
same,GI50,NCI-H522,> 100 µM (inactive)
same,GI50,ACHN,> 100 µM (inactive)
same,GI50,NCI-H460,> 100 µM (inactive)
same,GI50,SR,> 100 µM (inactive)
same,GI50,OVCAR-8,> 100 µM (inactive)
same,GI50,M14,> 100 µM (inactive)
same,GI50,OVCAR-5,> 100 µM (inactive)
same,GI50,NCI-H226,> 100 µM (inactive)
same,GI50,SK-MEL-28,> 100 µM (inactive)
same,GI50,LOX IMVI,> 100 µM (inactive)
same,GI50,SK-MEL-5,> 100 µM (inactive)
same,GI50,KM12,> 100 µM (inactive)
same,GI50,MDA-MB-435,> 100 µM (inactive)
same,GI50,HT-29,> 100 µM (inactive)
same,GI50,HCT-116,> 100 µM (inactive)
same,GI50,MDA-N,> 100 µM (inactive)
same,GI50,RPMI-8226,> 100 µM (inactive)
same,GI50,CAKI-1,> 100 µM (inactive)
same,GI50,SF-295,> 100 µM (inactive)
same,GI50,SK-MEL-2,> 100 µM (inactive)
same,GI50,IGROV-1,> 100 µM (inactive)
same,GI50,UO-31,> 100 µM (inactive)
same,GI50,UACC-257,> 100 µM (inactive)
same,GI50,COLO 205,> 100 µM (inactive)
same,GI50,MCF7,> 100 µM (inactive)
same,GI50,NCI-H23,> 100 µM (inactive)
same,GI50,HCT-15,> 100 µM
same,GI50,TK-10,> 100 µM (inactive)
Cc1ccc2nc(Cl)c(/C=N/N3C(=O)/C(=C/c4cccc([N+](=O)[O-])c4)N=C3c3ccccc3)cc2c1,GI50,786-0,> 100 µM (inactive)
same,GI50,OVCAR-4,58.7 µM (inactive)
same,GI50,CCRF-CEM,25.9 µM (inactive)
same,GI50,SN12C,35.7 µM (inactive)
same,GI50,MDA-MB-231,93.1 µM (inactive)
same,GI50,DU-145,> 100 µM (inactive)
same,GI50,A498,7.71 µM (inactive)
same,GI50,NCI/ADR-RES,36.5 µM (inactive)
same,GI50,A549,60.1 µM (inactive)
same,GI50,SK-OV-3,94.2 µM (inactive)
same,GI50,K562,47.6 µM (inactive)
same,GI50,SF-539,> 100 µM (inactive)
same,GI50,SF-268,97.1 µM (inactive)
same,GI50,SNB-19,> 100 µM (inactive)
same,GI50,HL-60,39.2 µM (inactive)
same,GI50,U-251,89.7 µM (inactive)
same,GI50,T47D,59.8 µM (inactive)
same,GI50,PC-3,25.4 µM (inactive)
same,GI50,OVCAR-3,30.5 µM (inactive)
same,GI50,UACC-62,34 µM (inactive)
same,GI50,SNB-75,59.6 µM (inactive)
same,GI50,EKVX,54.6 µM (inactive)
same,GI50,Hs-578T,94.6 µM (inactive)
same,GI50,MOLT-4,29.2 µM (inactive)
same,GI50,HOP-92,46.3 µM (inactive)
same,GI50,HOP-62,50.2 µM (inactive)
same,GI50,BT-549,> 100 µM (inactive)
same,GI50,SW-620,75.5 µM (inactive)
same,GI50,ACHN,49.1 µM (inactive)
same,GI50,NCI-H460,34.4 µM (inactive)
same,GI50,SR,19.8 µM (inactive)
same,GI50,OVCAR-8,72.4 µM (inactive)
same,GI50,M14,63.1 µM (inactive)
same,GI50,OVCAR-5,> 100 µM (inactive)
same,GI50,SK-MEL-28,> 100 µM (inactive)
same,GI50,LOX IMVI,87.1 µM (inactive)
same,GI50,SK-MEL-5,43.5 µM (inactive)
same,GI50,KM12,36.6 µM (inactive)
same,GI50,MDA-MB-435,20.7 µM (inactive)
same,GI50,HT-29,45.3 µM (inactive)
same,GI50,HCT-116,27.9 µM (inactive)
same,GI50,MDA-N,20.4 µM (inactive)
same,GI50,RPMI-8226,31.3 µM (inactive)
same,GI50,CAKI-1,66.4 µM (inactive)
same,GI50,SF-295,40.9 µM (inactive)
same,GI50,SK-MEL-2,22.2 µM (inactive)
same,GI50,IGROV-1,31.2 µM (inactive)
same,GI50,UO-31,38 µM (inactive)
same,GI50,UACC-257,61.1 µM (inactive)
same,GI50,COLO 205,38.7 µM (inactive)
same,GI50,MCF7,20.3 µM (inactive)
same,GI50,HCC 2998,67.5 µM (inactive)
same,GI50,HCT-15,42.2 µM
same,GI50,TK-10,> 100 µM (inactive)
